The source of these data is patent publication US7091207B2, “Method of treating myocardial infarction with PDE-5 inhibitors” (Virginia Commonwealth University, priority 2002, dated 2006).

The test system of assay [1] is rabbit heart, ischemia/reperfusion injury. The assay can be described thus: In situ rabbit model of myocardial infarction (30 min coronary occlusion, 180 min reperfusion), infarct size by TTC staining. In kind it is in vivo. To be noted: for reduction of infarct size vs saline control: 0.7 mg/kg IV.
Assay [2] relates to neonatal mouse cardiac myocytes. The class given is cell-based. To be noted: DOX 0.5–5 μM with 1 μM sildenafil. Here is the method: Neonatal mouse myocytes in culture are incubated with 0.5–5 μM of DOX (in the presence or absence of 1 μM sildenafil) for 18 hours. The cells are then incubated with drug free growth medium for an additional 24 hours. Cytotoxicity of DOX is quantitatively assessed by measuring the percentage of cells killed and the amount of creatine kinase (CK) released into the media. In addition, a trypan blue exclusion assay and propidium iodide nuclear stain are used to quantitate cell death. Since DOX induces cardiomyopathy through the release of reactive oxygen species, lipid peroxidation in the cells is also measured as an index of oxidative damage.
Neonatal mouse cardiac myocyte cultures are used for membrane potential studies. Cells in culture are treated with 0.5–5 μM of DOX (in the presence or absence of 1 μM sildenafil) for 18 hours. The cells are then incubated with drug free growth medium for an additional 24 hours. Additional groups are included where the cells are treated with a mitoKATP channel blocker (5-hydroxydecanoate, 100 μM), surface channel blocker (HMR1098, 30 μM) or cyclosporine, a mitochondrial membrane potential (Ψm) blocker (5 μM). For assessment of apoptosis, the TUNEL assay is used, which is an accurate method for distinguishing apoptosis from necrosis by specifically detecting DNA cleavage and chromatin condensation characteristic of apoptosis. Additionally, positive TUNEL staining directly correlates with the more typical biochemical and morphological aspects of apoptosis. Since an understanding of cell morphology is critical for data interpretation, apoptotic morphology is simultaneously assessed according to accepted scientific criteria previously described (Nor-Avi, 1999). The in situ staining of DNA strand breaks detected by the TUNEL assay along with subsequent morphological observation via epifluorescent, confocal, and electron microscopy, provides significant and reliable data regarding the identification of apoptotic cells, even in tissue samples where apoptosis represents a small segment of the population (Manning 1994). In addition, several other key indicators of apoptosis including annexin-V, cytosolic cytochrome c, caspase 3, caspase 8, as well as poly (ADP-ribose) polymerase cleavage in these groups, are measured. Mitochondrial membrane potential (Ψm) using a fluorescent indicator probe, JC-1 (Molecular Probes, Eugene, Oreg.) is measured.

Structures are written as SMILES. “And” between values parts separate entries of the source, which are not always exact repeats. Equal values may be shown once.

Turning to `CCCc1nn(C)c2c(=O)[nH]c(-c3cc(S(=O)(=O)N4CCN(C)CC4)ccc3OCC)nc12` [sildenafil], the infarct size in assay [1] (0.1 mg/kg, 30 minutes prior to ischemia) was 17.05%; in assay [1] (0.2 mg/kg, 30 minutes prior to ischemia), 13.53±1.24; in assay [1] (acute phase: sildenafil 0.7 mg/kg IV 30 min prior to ischemia/reperfusion), 10.8±0.9 % of risk area; in assay [1] (delayed phase: sildenafil 0.7 mg/kg IV 24 hrs prior to ischemia/reperfusion) it was 19.9±2.0 % of risk area; in assay [1] (total dose 0.7 mg/kg infused from 25 min of ischemia into reperfusion for 1 hr, 0.7 mg/kg) it was 18.37±2.42; in assay [1] (total dose 0.7 mg/kg infused from 25 min of ischemia into reperfusion for 1 hr, listed as Sildenafil, 0.7 mg/kg) it was “significant reduction in the infarct size”. Also, the “infarct limiting effect at lower doses (0.2 and 0.1 mg/kg) versus the 0.7 mg/kg dose” value in assay [1] (30 minutes prior to ischemia) was “comparable”. For the same compound, the “reduction of infarct size vs saline control” value in assay [1] (acute phase, 0.7 mg/kg) was 68% and 67%; in assay [1] (delayed phase), 41%. In assay [2], the “effect on DOX-induced apoptosis indicators” value is recorded as “aborted”. Also, in assay [2], the “effect on DOX-induced parameters of injury (CK release, trypan blue uptake, lipid hydroperoxides)” value is reported as “reversed”.
